Data: patent EP0090368A1, “Anthelmintic preparations” (priority 1982, dated 1983)

What was measured:
[1] = Safety on oral administration to cattle (Example 12); conditions: bovine, in vivo, selenium, cobalt and fenbendazole in combination (preparation of Example 3), read-out: oral administration with no adverse effect observed
Procedure: The safety of the composition of Example 3 on oral administration to cattle was investigated: • A total of 16 cattle were treated-orally with the preparation of Example 3. Eight Friesian heifers weighing between 330 and 420 kg were treated with the preparation at the recommended dose of 7.5 ml per 100 kg body weight. Four Friesian cattle weighing between 930 and 990 kg were treated orally with the preparation at five times the recommended dose i.e. 37.5 ml per 100 kg. A further four Friesan cattle weighing between 870 and 1030 kg were treated orally with the preparation at ten times the recommended dose i.e. […].
The cattle were observed daily for a period of 21 days following treatment for any signs at adverse effect.

[2] = Toxicity in lambs, daily clinical examinations after oral treatment (Example 2); conditions: sheep, in vivo, per os, given together with fenbendazole as developmental formulation, read-out: oral dose levels tolerated, no signs of drug toxicity
Procedure: Animals: Twenty, six to eight month old lambs were made available for the purpose of this investigation. The lambs were allocated to five groups (n = 4) on the basis of mean faecal egg counts determined on each of three successive days.
Prior to treatment, all lambs were weighed. Lambs were maintained at grass as a single group for the duration of the study.
• Group 1: Untreated controls • Group 2: Treated with 5 mg/kg fenbendazole as Panacur 2.5 % Suspension (Commercial batch, "Panacur", is a Trade Mark) Composition of Panacur 2.5 % : as described in Example 1 with the omission of the selenium and cobalt components. • Group 3: Treated with 5 mg/kg fenbendazole as a developmental formulation (see below) • Group 4: Treated with 25 mg/kg fenbendazole as a developmental formulation (see below) • Group 5: Treated with 50 mg/kg fenbendazole as a developmental formulation (see below)
Groups 4 and 5 thus received five and ten times respectively the recommended dose of fenbendazole and cobalt, and 12.5 and 25 times respectively the recommended dose of selenium.
Clinical examinations were carried out on all lambs daily post treatment for the duration of the study.

[3] = per os, sheep; cited from earlier work

| Structure (SMILES) | NOAEL at 504 h [1] | NOAEL [2] | LD50 [3] |
| --- | --- | --- | --- |
| COC(=O)Nc1nc2ccc(Sc3ccccc3)cc2[nH]1 [Fenbendazole, 5-Phenyl-thio-2-benzimidazolecarbamic acid methylester, reference compound] | ≤ 75 mg/kg | – | – |
| [Se] [elemental selenium] | ≥ 20 mg/kg | ≥ 2 mg/kg | 0.5 mg/kg |
